Series [1] has as its target T1, Nocardia sp. carboxylic acid reductase (CAR) (Nocardia iowensis, UniProt Q6RKB1).
T1 construct: made in house; host or cells: E. coli BL-21 (DE3) RP1pPV2-85; cell free extract
T1 sequence (Q6RKB1 1-1174): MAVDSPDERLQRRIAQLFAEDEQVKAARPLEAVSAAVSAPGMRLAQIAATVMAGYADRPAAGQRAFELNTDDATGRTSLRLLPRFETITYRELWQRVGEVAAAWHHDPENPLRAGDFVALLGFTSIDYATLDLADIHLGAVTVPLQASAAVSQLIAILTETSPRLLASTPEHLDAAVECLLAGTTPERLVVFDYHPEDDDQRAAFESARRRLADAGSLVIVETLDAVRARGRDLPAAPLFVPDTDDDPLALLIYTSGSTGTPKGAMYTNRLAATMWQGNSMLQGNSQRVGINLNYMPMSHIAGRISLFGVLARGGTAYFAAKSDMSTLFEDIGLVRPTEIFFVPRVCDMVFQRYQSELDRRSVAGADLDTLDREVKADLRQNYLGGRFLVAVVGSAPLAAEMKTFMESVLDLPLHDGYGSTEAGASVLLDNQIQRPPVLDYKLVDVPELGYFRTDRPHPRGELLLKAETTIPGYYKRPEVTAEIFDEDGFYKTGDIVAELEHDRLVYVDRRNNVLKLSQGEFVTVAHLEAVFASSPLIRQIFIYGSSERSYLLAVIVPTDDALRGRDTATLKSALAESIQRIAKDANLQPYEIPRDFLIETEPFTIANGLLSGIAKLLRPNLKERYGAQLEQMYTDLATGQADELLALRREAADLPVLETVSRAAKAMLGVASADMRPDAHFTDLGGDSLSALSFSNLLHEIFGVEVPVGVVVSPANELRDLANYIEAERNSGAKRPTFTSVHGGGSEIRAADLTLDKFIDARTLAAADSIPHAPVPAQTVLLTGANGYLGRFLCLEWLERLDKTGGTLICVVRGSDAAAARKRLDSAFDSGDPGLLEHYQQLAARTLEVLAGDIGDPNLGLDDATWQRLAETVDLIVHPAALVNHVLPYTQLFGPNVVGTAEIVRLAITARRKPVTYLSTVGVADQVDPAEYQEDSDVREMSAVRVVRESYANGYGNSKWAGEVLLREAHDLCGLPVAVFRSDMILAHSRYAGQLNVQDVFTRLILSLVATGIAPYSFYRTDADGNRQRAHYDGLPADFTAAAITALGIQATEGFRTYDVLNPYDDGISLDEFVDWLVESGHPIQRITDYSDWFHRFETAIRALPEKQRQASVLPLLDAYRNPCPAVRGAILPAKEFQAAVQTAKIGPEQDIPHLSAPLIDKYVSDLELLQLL
In words: Spectrophotometric carboxylic acid reductase (CAR) activity assay, change in absorbance at 340 nm. To be noted: for Adjusted for background: gradient of change in absorbance at 340 nm adjusted for background; for gradient of trend line: rate of change in absorbance at 340 nm, CAR cell free extract, substrate added after 2 minutes; for Relative rate % compared to benzoate: relative rate of change in absorbance at 340 nm. The format is biochemical. The method, then: The conditions for the assay were taken from Applied and Environmental Microbiology 2004, 70, p 1874-1881.
In a quartz cuvette the following reagents were added: 100 μL MgCl2, 100 μL, ATP, 100 μL NADPH, 200 μL Tris.HCl buffer. The absorbance at 340 nm was measured and recorded and 100 μL of CAR cell free extract was added. The absorbance was monitored and recorded. […] The absorbance monitored over time was subtracted from the initial measurement.

Series [2] addresses T2, AAR acyl-ACP reductase (YP_400611) (Synechococcus elongatus, UniProt Q54765).
T2 construct: host or cells: E. coli MG1655
T2 sequence (Q54765 1-341): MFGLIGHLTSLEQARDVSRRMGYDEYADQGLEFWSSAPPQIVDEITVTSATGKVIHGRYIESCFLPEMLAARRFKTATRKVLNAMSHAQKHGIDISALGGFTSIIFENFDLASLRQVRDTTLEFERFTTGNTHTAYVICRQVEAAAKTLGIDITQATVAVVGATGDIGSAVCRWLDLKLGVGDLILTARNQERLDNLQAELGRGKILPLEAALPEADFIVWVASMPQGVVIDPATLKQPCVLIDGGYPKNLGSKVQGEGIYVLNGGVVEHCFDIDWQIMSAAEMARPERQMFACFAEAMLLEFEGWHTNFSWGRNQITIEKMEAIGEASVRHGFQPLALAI
Conditions: substrate of AAR, octadecanal formed, NADPH-dependent; cited from earlier work.

The target in another series is T3, ACOT3 (formerly PTE-1a) (Mus musculus, UniProt Q9QYR7).
T3 construct: His-tag; host or cells: E. coli
T3 sequence (Q9QYR7 1-432): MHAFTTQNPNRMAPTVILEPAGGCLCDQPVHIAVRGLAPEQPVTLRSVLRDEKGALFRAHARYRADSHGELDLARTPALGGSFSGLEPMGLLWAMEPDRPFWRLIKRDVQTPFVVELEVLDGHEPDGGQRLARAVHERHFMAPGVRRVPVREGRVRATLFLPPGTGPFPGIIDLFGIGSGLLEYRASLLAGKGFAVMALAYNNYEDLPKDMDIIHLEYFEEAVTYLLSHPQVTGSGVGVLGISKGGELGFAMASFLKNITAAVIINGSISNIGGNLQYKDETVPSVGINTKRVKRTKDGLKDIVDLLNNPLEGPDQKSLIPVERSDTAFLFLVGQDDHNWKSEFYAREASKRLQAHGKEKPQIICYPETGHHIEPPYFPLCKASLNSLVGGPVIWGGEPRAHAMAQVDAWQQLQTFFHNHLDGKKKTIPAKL
To be noted: free CoASH; cited from earlier work.

Series [3] addresses T4, ACOT8 peroxisomal acyl-CoA thioesterase 8 (Mus musculus, UniProt P58137).
T4 construct: His-Tag; host or cells: E. coli
T4 sequence (P58137 1-320): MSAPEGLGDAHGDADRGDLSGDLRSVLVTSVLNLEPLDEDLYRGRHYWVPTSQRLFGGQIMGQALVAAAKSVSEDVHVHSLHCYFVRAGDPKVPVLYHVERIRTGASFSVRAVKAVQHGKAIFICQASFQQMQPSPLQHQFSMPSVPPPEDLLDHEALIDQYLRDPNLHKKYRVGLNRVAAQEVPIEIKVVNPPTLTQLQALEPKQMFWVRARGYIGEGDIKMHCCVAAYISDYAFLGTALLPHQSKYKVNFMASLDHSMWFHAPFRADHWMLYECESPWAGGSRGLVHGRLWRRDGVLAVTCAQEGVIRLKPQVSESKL
To be noted: inhibition of ACOT8; cited from earlier work.

Series [4] deals with T5, ACOT4 peroxisomal acyl-CoA thioesterase 4 (Mus musculus, UniProt Q8BWN8).
T5 construct: His-tag; host or cells: E. coli
T5 sequence (Q8BWN8 1-421): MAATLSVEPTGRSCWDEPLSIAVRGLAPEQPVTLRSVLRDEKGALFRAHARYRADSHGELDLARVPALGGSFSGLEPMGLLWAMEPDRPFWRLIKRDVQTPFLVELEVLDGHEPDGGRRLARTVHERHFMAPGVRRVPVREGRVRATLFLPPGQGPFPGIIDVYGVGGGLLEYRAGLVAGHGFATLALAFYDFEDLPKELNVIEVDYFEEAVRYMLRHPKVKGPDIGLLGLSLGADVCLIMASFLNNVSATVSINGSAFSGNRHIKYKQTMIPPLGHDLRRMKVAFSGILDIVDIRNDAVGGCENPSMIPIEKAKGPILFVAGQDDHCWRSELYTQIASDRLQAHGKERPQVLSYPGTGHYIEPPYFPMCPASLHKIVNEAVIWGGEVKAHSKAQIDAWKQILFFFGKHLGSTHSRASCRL
Conditions: CoASH at concentrations up to 500 μM; cited from earlier work.

A further series has as its target T6, ACOT5 (formerly PTE-1c) (Mus musculus, UniProt Q6Q2Z6).
T6 construct: His-tag; host or cells: E. coli
T6 sequence (Q6Q2Z6 1-421): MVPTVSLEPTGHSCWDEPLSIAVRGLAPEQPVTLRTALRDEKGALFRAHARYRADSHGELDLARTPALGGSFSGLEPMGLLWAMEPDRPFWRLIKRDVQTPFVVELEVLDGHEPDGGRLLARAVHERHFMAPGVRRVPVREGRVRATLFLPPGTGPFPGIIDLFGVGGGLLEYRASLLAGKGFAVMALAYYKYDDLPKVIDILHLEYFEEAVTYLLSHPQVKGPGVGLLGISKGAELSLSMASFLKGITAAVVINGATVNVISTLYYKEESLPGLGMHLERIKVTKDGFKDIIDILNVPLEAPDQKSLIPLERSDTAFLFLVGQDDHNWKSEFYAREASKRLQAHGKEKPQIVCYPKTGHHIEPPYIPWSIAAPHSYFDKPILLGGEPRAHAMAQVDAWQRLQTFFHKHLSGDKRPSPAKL
To be noted: free CoASH; cited from earlier work.

For series [5], the target named is T7, Amino adipate aminotransferase (Q64602) (Bos taurus, UniProt Q5E9N4).
T7 construct: Purification and properties of 2-aminoadipate: 2-oxoglutarate aminotransferase from bovine kidney; host or cells: bovine kidney
Conditions: in the presence of pimelic acid; cited from earlier work.

The subject of series [6] is PauA catabolic pimeloyl-CoA ligase. To be noted: substrate accepted by PauA, pimelate = 100%; cited from earlier work.

For orientation: Km means the concentration of substrate that gives half-maximal velocity. Broadly, the IC50 is the concentration that inhibits the measured activity by half.

T7 sequence (Q5E9N4 30-425, one chain of several): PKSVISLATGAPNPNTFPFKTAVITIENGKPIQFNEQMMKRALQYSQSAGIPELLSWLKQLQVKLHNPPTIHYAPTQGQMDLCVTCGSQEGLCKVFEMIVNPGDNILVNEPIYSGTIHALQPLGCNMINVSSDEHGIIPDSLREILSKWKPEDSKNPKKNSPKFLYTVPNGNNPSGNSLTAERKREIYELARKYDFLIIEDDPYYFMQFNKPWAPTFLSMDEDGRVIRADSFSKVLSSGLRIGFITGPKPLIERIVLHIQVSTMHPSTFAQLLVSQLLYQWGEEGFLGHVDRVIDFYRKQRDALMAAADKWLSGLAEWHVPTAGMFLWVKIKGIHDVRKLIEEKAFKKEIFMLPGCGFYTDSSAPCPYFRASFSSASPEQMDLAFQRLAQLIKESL

Consider `O=C([O-])CCCCCC(=O)[O-].[Na+].[Na+]` [sodium pimelate], for which, in series [1], the Adjusted for background is reported as 0.0068, the “gradient of trend line” value is on record as 0.0076 and the “Relative rate % compared to benzoate” value amounted to 51.1%.

In the case of oleoyl-ACP, the Km in series [2] is 8 µM.

`CC(C)(COP(=O)(O)OP(=O)(O)OC[C@H]1O[C@@H](n2cnc3c(N)ncnc32)[C@H](O)[C@@H]1OP(=O)(O)O)[C@@H](O)C(=O)NCCC(=O)NCCS` [CoASH]: the inhibition result on ACOT3 (formerly PTE-1a) and at ACOT5 (formerly PTE-1c) was “no inhibition” in each case. The IC50 in series [3] is 10 to 15 µM. Besides, in series [4], the “inhibition of the reaction” value was “not inhibited”.

Regarding `CCCCCCCC/C=C\CCCCCCCC(=O)SCCNC(=O)CCNC(=O)[C@H](O)C(C)(C)COP(=O)(O)OP(=O)(O)OC[C@H]1O[C@@H](n2cnc3c(N)ncnc32)[C@H](O)[C@@H]1OP(=O)(O)O` [oleoyl-CoA], the Km in series [2] is 130 µM.

Turning to `O=C([O-])c1ccccc1.[Na+]` [sodium benzoate], in series [1], the Adjusted for background is listed as 0.00133, the “gradient of trend line” value amounted to 0.0141 and the “Relative rate % compared to benzoate” value worked out at 100%.

`O=C(O)CCCCCC(=O)O` [pimelic acid]: the “activity relative to the activity for benzoic acid” value in series [1] (reduction to pimelic acid semialdehyde by CAR from Nocardia) is reported as more than 50%. For the same molecule, the reduction in activity in series [5] is 30%. The relative activity in series [6] is on record as 100%.

Values taken from patent US10577634B2, “Bioconversion process for producing nylon-7, nylon-7,7 and polyesters” (INVISTA North America S.A.R.L., priority 2011, dated 2020).
